{"source": "patent US10351539B2", "about": "“Macrocyclic complexes, their process of preparation and use as PET imaging agents” (INSTITUT NATIONAL DE LA SANTE ET DE LA RECHERCHE MEDICALE …, priority 2014, dated 2019)", "key": {"[1]": {"assay": "Biodistribution in healthy and SRC bearing rats at 1 h after i.v. injection of radiolabelled compounds", "format": "in vivo", "conditions": "mean ± SD (n = 3)", "experimental": "Quantitative biodistribution of radiolabelled compounds was determined in rats: healthy animals as well as rats with primary grade II orthotopic chondrosarcoma at stage Day-30 after induction. The chondrosarcoma model was the Swarm Rat Chondrosarcoma model (SRC) implanted in paratibial location. Radiolabelled compounds (5-10 Mbq/animal) were i.v. administered in the caudal vein of animals being anesthetized of mixture of ketamine (58 mg/kg i.p.) (Imalgéne 500®) and xylazine (6 mg/kg i.p.) (Rompun® 2%, Bayer, France). One hour after injection, animals were then sacrificed by CO2 inhalation, dissected and organs of interest removed, weighed and their radioactivity counted using a gamma counter (Model 1480 Wizard, Perkin Elmer Life Sciences, Boston, USA). Organs collected were blood, muscle, knee, kidneys, liver, thoracic ribs, bladder for both healthy and chondrosarcoma bearing rats. For SRC animals, tumour was also sampled. After radioactive decay correction, results were expressed for each organ as % injected dose per gram (% ID/g) and averaged per group."}, "[2]": {"assay": "Study 2: biodistribution in healthy New Zealand rabbits (gamma counting of dissected organs)", "format": "in vivo", "conditions": "for Uptake ratio Cartilage/Bone / Uptake ratio Cartilage/Muscle / Articular Cartilage / Bile / Blood / Bone / Bone Marrow / Kidney / Liver / Lung / Muscle / Spleen / Thyroid / Urine: i.v.", "experimental": "Biodistribution were determined in 36 healthy New Zealand rabbits (18 males and 18 females, 14 weeks old, 3.5 kg weight, Charles River, France), being randomly divided into two groups: • One group receiving ^99mTc-NTP 15-5: 18±3 MBq/animal for biodistribution; • One group receiving ^64Cu-2: 17±4 MBq/animal for biodistribution.\nThe compounds were i.v. administered to anesthetized animals (ketamine/xylazine by intramuscular route) in the marginal ear vein.\nAt selected time points after injection (15 min, 1 h, 3 h, 6 h, 20 h after injection), animals (3 animals/time point/compound) were sacrificed by a lethal i.v. dose of pentobarbital. Organs of interest were dissected, weighed and their radioactivity measured using a gamma counter (Model 1480 Wizard, Perkin Elmer Life Sciences, Boston, USA). After radioactive decay correction, results were expressed for each organ as % injected dose per gram (% ID/g) and averaged per group and per time point."}}, "note": "“Also recorded” adds a separate entry of the source."}
{"smiles": "CC[N+](CC)(CC)CCCN1CCNCCNCCNCCNCC1.[64Cu+2]", "note": "[^64Cu-2, [^64Cu]—N,N,N-Triethyl-3-(1,4,7,10,13-pentaazacyclopentadecan-1-yl)propan-1-aminium copper(II)]", "values": [{"measurement": "Tumor", "setting": "[1]; SRC (Swarm Rat Chondrosarcoma) bearing rats", "result": "3.5 ± 0.5", "unit": "% ID/g"}, {"measurement": "Articular Cartilage", "setting": "[1]; healthy and SRC bearing rats", "result": "2.6 ± 1.1", "unit": "% ID/g"}, {"measurement": "Bladder", "setting": "[1]; healthy and SRC bearing rats", "result": "62.2 ± 17.6", "unit": "% ID/g"}, {"measurement": "Blood", "setting": "[1]; healthy and SRC bearing rats", "result": "0.1 ± 0.05", "unit": "% ID/g"}, {"measurement": "Kidney", "setting": "[1]; healthy and SRC bearing rats", "result": "16.4 ± 6.6", "unit": "% ID/g"}, {"measurement": "Muscle", "setting": "[1]; healthy and SRC bearing rats", "result": "0.4 ± 0.3", "unit": "% ID/g"}, {"measurement": "Accumulation in kidneys compared to ^99mTc-NTP 15-5", "setting": "[2]", "result": "significantly higher"}, {"measurement": "Cartilage/muscle and cartilage/Bone ratios compared to ^99mTc-NTP 15-5", "setting": "[2]", "result": "higher"}, {"measurement": "Duration of liver accumulation compared to ^99mTc-NTP 15-5", "setting": "[2]", "result": "shorter"}, {"measurement": "Accumulation in cartilage (onset)", "setting": "[2]; as early as 15 min p.i.", "result": "rapidly accumulate"}, {"measurement": "Uptake into the cartilages compared to ^99mTc-NTP 15-5", "setting": "[2]; each time investigated", "result": "faster and higher uptake; also recorded: higher levels"}, {"measurement": "Uptake ratio Cartilage/Bone", "setting": "[2]; 15 min", "result": 120}, {"measurement": "Uptake ratio Cartilage/Muscle", "setting": "[2]; 15 min", "result": 282}, {"measurement": "Articular Cartilage", "setting": "[2]; 15 min after injection", "result": "8.46 ± 6.18", "unit": "% ID/g"}, {"measurement": "Bile", "setting": "[2]; 15 min after injection", "result": "0.07 ± 0.04", "unit": "% ID/g"}, {"measurement": "Blood", "setting": "[2]; 15 min after injection", "result": "0.31 ± 0.17", "unit": "% ID/g"}, {"measurement": "Bone", "setting": "[2]; 15 min after injection", "result": "0.07 ± 0.02", "unit": "% ID/g"}, {"measurement": "Bone Marrow", "setting": "[2]; 15 min after injection", "result": "0.08 ± 0.04", "unit": "% ID/g"}, {"measurement": "Kidney", "setting": "[2]; 15 min after injection", "result": "0.65 ± 0.47", "unit": "% ID/g"}, {"measurement": "Liver", "setting": "[2]; 15 min after injection", "result": "0.11 ± 0.03", "unit": "% ID/g"}, {"measurement": "Lung", "setting": "[2]; 15 min after injection", "result": "0.23 ± 0.14", "unit": "% ID/g"}, {"measurement": "Muscle", "setting": "[2]; 15 min after injection", "result": "0.03 ± 0.02", "unit": "% ID/g"}, {"measurement": "Spleen", "setting": "[2]; 15 min after injection", "result": "0.11 ± 0.08", "unit": "% ID/g"}, {"measurement": "Thyroid", "setting": "[2]; 15 min after injection", "result": "0.11 ± 0.08", "unit": "% ID/g"}, {"measurement": "Urine", "setting": "[2]; 15 min after injection", "result": "1.51 ± 2.22", "unit": "% ID/g"}, {"measurement": "Uptake ratio Cartilage/Bone", "setting": "[2]; 1 h", "result": 484}, {"measurement": "Uptake ratio Cartilage/Muscle", "setting": "[2]; 1 h", "result": 484}, {"measurement": "Articular Cartilage", "setting": "[2]; 1 h after injection", "result": "4.81 ± 1.16", "unit": "% ID/g"}, {"measurement": "Bile", "setting": "[2]; 1 h after injection", "result": "0.03 ± 0.02", "unit": "% ID/g"}, {"measurement": "Blood", "setting": "[2]; 1 h after injection", "result": "0.08 ± 0.02", "unit": "% ID/g"}, {"measurement": "Bone", "setting": "[2]; 1 h after injection", "result": "0.01 ± 0.00", "unit": "% ID/g"}, {"measurement": "Bone Marrow", "setting": "[2]; 1 h after injection", "result": "0.03 ± 0.01", "unit": "% ID/g"}, {"measurement": "Kidney", "setting": "[2]; 1 h after injection", "result": "0.26 ± 0.07", "unit": "% ID/g"}, {"measurement": "Liver", "setting": "[2]; 1 h after injection", "result": "0.04 ± 0.01", "unit": "% ID/g"}, {"measurement": "Lung", "setting": "[2]; 1 h after injection", "result": "0.07 ± 0.02", "unit": "% ID/g"}, {"measurement": "Muscle", "setting": "[2]; 1 h after injection", "result": "0.01 ± 0.00", "unit": "% ID/g"}, {"measurement": "Spleen", "setting": "[2]; 1 h after injection", "result": "0.03 ± 0.01", "unit": "% ID/g"}, {"measurement": "Thyroid", "setting": "[2]; 1 h after injection", "result": "0.03 ± 0.01", "unit": "% ID/g"}, {"measurement": "Urine", "setting": "[2]; 1 h after injection", "result": "1.69 ± 2.14", "unit": "% ID/g"}, {"measurement": "Articular Cartilage", "setting": "[2]; 3 h after injection", "result": "2.31 ± 0.32", "unit": "% ID/g"}, {"measurement": "Bile", "setting": "[2]; 3 h after injection", "result": "0.11 ± 0.17", "unit": "% ID/g"}, {"measurement": "Blood", "setting": "[2]; 3 h after injection", "result": "0.02 ± 0.00", "unit": "% ID/g"}, {"measurement": "Bone", "setting": "[2]; 3 h after injection", "result": "0.01 ± 0.00", "unit": "% ID/g"}, {"measurement": "Bone Marrow", "setting": "[2]; 3 h after injection", "result": "0.01 ± 0.00", "unit": "% ID/g"}, {"measurement": "Kidney", "setting": "[2]; 3 h after injection", "result": "0.22 ± 0.01", "unit": "% ID/g"}, {"measurement": "Liver", "setting": "[2]; 3 h after injection", "result": "0.02 ± 0.00", "unit": "% ID/g"}, {"measurement": "Lung", "setting": "[2]; 3 h after injection", "result": "0.03 ± 0.00", "unit": "% ID/g"}, {"measurement": "Muscle", "setting": "[2]; 3 h after injection", "result": "0.00 ± 0.00", "unit": "% ID/g"}, {"measurement": "Spleen", "setting": "[2]; 3 h after injection", "result": "0.02 ± 0.00", "unit": "% ID/g"}, {"measurement": "Thyroid", "setting": "[2]; 3 h after injection", "result": "0.04 ± 0.05", "unit": "% ID/g"}, {"measurement": "Urine", "setting": "[2]; 3 h after injection", "result": "0.92 ± 0.63", "unit": "% ID/g"}, {"measurement": "Articular Cartilage", "setting": "[2]; 6 h after injection", "result": "1.00 ± 1.02", "unit": "% ID/g"}, {"measurement": "Bile", "setting": "[2]; 6 h after injection", "result": "0.02 ± 0.02", "unit": "% ID/g"}, {"measurement": "Blood", "setting": "[2]; 6 h after injection", "result": "0.02 ± 0.02", "unit": "% ID/g"}, {"measurement": "Bone", "setting": "[2]; 6 h after injection", "result": "0.00 ± 0.00", "unit": "% ID/g"}, {"measurement": "Bone Marrow", "setting": "[2]; 6 h after injection", "result": "0.01 ± 0.01", "unit": "% ID/g"}, {"measurement": "Kidney", "setting": "[2]; 6 h after injection", "result": "0.26 ± 0.14", "unit": "% ID/g"}, {"measurement": "Liver", "setting": "[2]; 6 h after injection", "result": "0.02 ± 0.02", "unit": "% ID/g"}, {"measurement": "Lung", "setting": "[2]; 6 h after injection", "result": "0.02 ± 0.02", "unit": "% ID/g"}, {"measurement": "Muscle", "setting": "[2]; 6 h after injection", "result": "0.00 ± 0.00", "unit": "% ID/g"}, {"measurement": "Spleen", "setting": "[2]; 6 h after injection", "result": "0.02 ± 0.02", "unit": "% ID/g"}, {"measurement": "Thyroid", "setting": "[2]; 6 h after injection", "result": "0.00 ± 0.00", "unit": "% ID/g"}, {"measurement": "Urine", "setting": "[2]; 6 h after injection", "result": "6.90 ± 7.93", "unit": "% ID/g"}, {"measurement": "Articular Cartilage", "setting": "[2]; 20 h after injection", "result": "0.10 ± 0.02", "unit": "% ID/g"}, {"measurement": "Bile", "setting": "[2]; 20 h after injection", "result": "0.01 ± 0.00", "unit": "% ID/g"}, {"measurement": "Blood", "setting": "[2]; 20 h after injection", "result": "0.00 ± 0.00", "unit": "% ID/g"}, {"measurement": "Bone", "setting": "[2]; 20 h after injection", "result": "0.00 ± 0.00", "unit": "% ID/g"}, {"measurement": "Bone Marrow", "setting": "[2]; 20 h after injection", "result": "0.00 ± 0.00", "unit": "% ID/g"}, {"measurement": "Kidney", "setting": "[2]; 20 h after injection", "result": "0.06 ± 0.01", "unit": "% ID/g"}, {"measurement": "Liver", "setting": "[2]; 20 h after injection", "result": "0.00 ± 0.00", "unit": "% ID/g"}, {"measurement": "Lung", "setting": "[2]; 20 h after injection", "result": "0.00 ± 0.00", "unit": "% ID/g"}, {"measurement": "Muscle", "setting": "[2]; 20 h after injection", "result": "0.00 ± 0.00", "unit": "% ID/g"}, {"measurement": "Spleen", "setting": "[2]; 20 h after injection", "result": "0.01 ± 0.00", "unit": "% ID/g"}, {"measurement": "Thyroid", "setting": "[2]; 20 h after injection", "result": "0.00 ± 0.00", "unit": "% ID/g"}, {"measurement": "Urine", "setting": "[2]; 20 h after injection", "result": "0.25 ± 0.22", "unit": "% ID/g"}, {"measurement": "Urinary elimination", "setting": "[2]; indicated by accumulation in kidneys", "result": "high/rapid"}, {"measurement": "In vivo stability (release of ^64Cu from transchelation or transmetalation negligible)", "setting": "[2]; inferred from liver uptake", "result": "stable"}]}
